Test results reported in the NIST ThermoML archive (doi:10.1021/je700260f).

Settings: 293.15 K, Liquid, Vibrating tube method

FC(C(F)(F)F)C(F)(F)F [1,1,1,2,3,3,3-heptafluoropropane]
Settings	mass density [kg/m3]
19492 kPa	1505.8
19631 kPa	1506.6
19665 kPa	1506.5
19699 kPa	1506.6
19732 kPa	1506.9
19762 kPa	1506.9
19806 kPa	1507.1
19844 kPa	1507.3
19868 kPa	1507.3
19906 kPa	1507.5
19940 kPa	1507.7
19974 kPa	1507.8
20007 kPa	1507.9
20047 kPa	1508
20080 kPa	1508.1
20109 kPa	1508.3
20152 kPa	1508.4
20190 kPa	1508.6
20215 kPa	1508.7
20258 kPa	1508.8
20302 kPa	1508.9
20335 kPa	1509.2
20375 kPa	1509.2
20404 kPa	1509.3
20434 kPa	1509.5
20478 kPa	1509.6
20517 kPa	1509.9
20546 kPa	1510
20591 kPa	1510.1
20630 kPa	1510.1
20659 kPa	1510.3
20702 kPa	1510.5
20732 kPa	1510.6
20761 kPa	1510.6
20802 kPa	1510.8
20843 kPa	1511
20873 kPa	1511
20907 kPa	1511.2
20982 kPa	1511.5
21017 kPa	1511.6
21048 kPa	1511.8
21094 kPa	1511.9
21134 kPa	1512
21164 kPa	1512.1
21209 kPa	1512.3
21245 kPa	1512.4
21279 kPa	1512.5
21314 kPa	1512.7
21359 kPa	1512.8
21389 kPa	1513
21458 kPa	1513.1
21488 kPa	1513.2
21669 kPa	1513.9
21699 kPa	1513.9
21739 kPa	1514.2
21927 kPa	1514.8
21967 kPa	1515
22009 kPa	1515.2
22034 kPa	1515.3
22076 kPa	1515.4
22122 kPa	1515.5
22152 kPa	1515.7
22194 kPa	1515.8
22230 kPa	1515.9
22261 kPa	1516.2
22291 kPa	1516.2
22322 kPa	1516.3
22358 kPa	1516.3
22404 kPa	1516.5
22440 kPa	1516.7
22476 kPa	1516.8
22522 kPa	1516.9
22548 kPa	1517.1
22584 kPa	1517.1
22625 kPa	1517.4
22661 kPa	1517.5
22702 kPa	1517.6
22744 kPa	1517.7
22781 kPa	1517.9
22813 kPa	1518
22849 kPa	1518.2
22886 kPa	1518.3
22923 kPa	1518.4
22959 kPa	1518.6
23001 kPa	1518.7
23042 kPa	1518.8
23072 kPa	1518.8
23118 kPa	1519
23154 kPa	1519.1
23191 kPa	1519.3
23228 kPa	1519.5
23271 kPa	1519.7
23308 kPa	1519.7
23350 kPa	1519.8
23392 kPa	1520
23424 kPa	1520.1
23466 kPa	1520.2
23513 kPa	1520.5
23540 kPa	1520.6
23577 kPa	1520.5
23615 kPa	1520.7
23648 kPa	1520.9
23692 kPa	1521
23735 kPa	1521.1
23815 kPa	1521.5
23852 kPa	1521.6
23883 kPa	1521.6
23925 kPa	1521.8
23962 kPa	1521.9
23986 kPa	1522.1
24019 kPa	1522.1
24048 kPa	1522.3
24087 kPa	1522.4
24120 kPa	1522.5
24149 kPa	1522.6
24187 kPa	1522.7
24229 kPa	1522.8
24263 kPa	1523
24297 kPa	1523
24326 kPa	1523.2
24354 kPa	1523.2
24393 kPa	1523.3
24422 kPa	1523.3
24451 kPa	1523.5
24485 kPa	1523.6
24524 kPa	1523.8
24553 kPa	1523.9
24587 kPa	1524.1
24630 kPa	1524.2
24659 kPa	1524.3
24698 kPa	1524.5
24728 kPa	1524.6
24757 kPa	1524.6
24786 kPa	1524.7
24816 kPa	1524.7
24851 kPa	1524.9
24886 kPa	1525
24920 kPa	1525.2
24949 kPa	1525.2
24991 kPa	1525.5
25030 kPa	1525.6
25059 kPa	1525.6
25097 kPa	1525.8
25136 kPa	1525.9
25165 kPa	1526.1
25199 kPa	1526.1
25229 kPa	1526.1
25268 kPa	1526.4
25297 kPa	1526.4
25326 kPa	1526.6
25360 kPa	1526.8
25393 kPa	1526.6
25438 kPa	1526.9
25466 kPa	1527
25496 kPa	1527.2
25530 kPa	1527.2
25569 kPa	1527.4
25594 kPa	1527.4
25639 kPa	1527.4
25678 kPa	1527.7
25708 kPa	1527.9
25747 kPa	1527.9
25791 kPa	1528.1
25816 kPa	1528.2
25845 kPa	1528.1
25889 kPa	1528.4
25923 kPa	1528.5
25958 kPa	1528.6
25994 kPa	1528.8
26024 kPa	1528.9
26068 kPa	1529
26112 kPa	1529.1
26141 kPa	1529.3
26181 kPa	1529.4
26220 kPa	1529.5
26250 kPa	1529.5
26284 kPa	1529.7
26319 kPa	1529.8
26349 kPa	1529.9
26391 kPa	1530.1
26430 kPa	1530.1
26455 kPa	1530.3
26504 kPa	1530.5
26534 kPa	1530.6
26570 kPa	1530.6
26610 kPa	1530.7
26646 kPa	1530.8
26682 kPa	1530.9
26717 kPa	1531.1
26753 kPa	1531.3
26784 kPa	1531.3
26824 kPa	1531.4
26864 kPa	1531.6
26899 kPa	1531.6
26939 kPa	1531.8
26979 kPa	1532
27009 kPa	1532.1
27045 kPa	1532.2
27080 kPa	1532.3
27115 kPa	1532.4
27151 kPa	1532.6
27188 kPa	1532.6
27224 kPa	1532.8
27265 kPa	1532.9
27302 kPa	1533.1
